Assay results from paper PMC13042944, “Substituent‐Based Modulation of Self‐Assembly and Immunogenicity of Amphipathic Peptides” (Advanced Science, 2026).
Read-outs that look alike come from different tables or passages of the source.

B1: KFE8 (Ac-FKFEFKFE-Am) (peptide)
peptide: Ac-FKFEFKFE-NH2
notes: designed amphipathic octapeptide; also called double repeat of FKFE
B2: KFE5 (Ac-FKFEF-Am) (peptide)
peptide: Ac-FKFEF-NH2
notes: designed amphipathic pentapeptide, truncated variant of KFE8; also called KFE5(H); source: synthetic peptide (Fmoc-SPPS on Rink Amide resin, HPLC purified)

Key:
[1] = Negative-stain TEM of self-assembled peptide fibrils (width, length, morphology); assay type: physicochemical; details: for self-assembly / fibril morphology (in words): in water, identical preparation conditions; for fibril width: assembled in water, 10 µM on grid, n = 200 measurements from 30 fibrils
Experimental: Peptide solutions (10 µM; diluted in UPW from fibrillated peptide solutions as stated above) were applied directly to 200‐mesh, carbon‐coated copper grids for 2 min and stained with 1% uranyl formate for 1 min. Excess stain and the peptide solution were blotted using filter paper, and grids were washed thrice with UPW. Darkfield images were acquired on a JEOL (Akishima, Japan) JEM‐2100F Field‐Emission STEM microscope at an accelerating voltage of 120 kV.
Individual fibers were selected for measurement, avoiding aggregates. The width of each fiber was measured using the line tool by drawing a line across the fiber's width at an angle approximately perpendicular (90°) to its orientation to ensure accuracy. Similar measurements were done to calculate the length of the fibrils. The start and end points of the line were determined based on the contrast between the fiber and the surrounding background. […]

[2] = Thioflavin T (ThT) fluorescence assay of fibrils; assay type: physicochemical; details: 50 µM peptide, ThT 10 µM, ex 440 nm / em 485 nm, n = 4
Experimental: For ThT assays, 50 µM fibrillated peptide solutions (diluted in UPW from fibrillated peptide solutions as stated above) were mixed with 20 µM ThT solution, and fluorescence was monitored at 485 nm upon excitation at 440 nm in a 96‐well plate using a Synergy HT plate reader (Biotek, USA). The OVA‐conjugated peptide fibrils were used to assess long‐term stability over a 7‐day period.

[3] = Gelation, rheology (G′, G″) and viscosity of peptide solutions; assay type: physicochemical; details: for Gel Formation: 5 mM peptide concentration, in deionized water; for viscosity (in words): 5 mM peptide solutions, shear rate 100 s^-1, n = 4
Experimental: An ARES 2000ex rotational rheometer (TA Instruments, New Castle, DE) was used to evaluate the viscosity and viscoelastic properties of the peptides. Peptides were freshly solubilized in deionized water at 5 mM and allowed to incubate for 10 min to allow for complete solubilization. Next, 170 µL of each peptide solution was pipetted directly onto the rheometer stage. A 20 mm parallel plate geometry was lowered to a gap of 200 µm. Storage modulus (G′) and loss modulus (G″) were measured as a function of strain amplitude of 0.05–50% at an angular frequency of 10 rad/s to determine the linear viscoelastic region. Next, G′ and G″ were measured as a function of angular frequency (1–10 rad/s) at a strain of 1%. […] Separately, a Hagen‐Poiseuille viscometer (microVISC, Rheosense, San Ramon, CA) was used at a shear rate of 1000 s^−1 to validate measured viscosity trends.

[4] = tested on: mouse bone-marrow dendritic cells (DCs); test: Cytokine and chemokine release from BMDC cultures treated with nanofibers; assay type: cell-based; details: BMDCs treated with peptide nanofibers 10 μM for 24 h, supernatant analysed
Experimental: The femurs and tibiae of mice of C57BL/6 mice were flushed, and single‐cell suspensions were prepared, following removal of red blood cells (RBCs) using lysis buffer (Invitrogen, USA). After washing twice using HBSS (Hanks balanced salt solution), cells were differentiated for 7–9 days in complete Roswell Park Memorial Institute (RPMI) 1640 media containing heat‐inactivated Fetal bovine serum (FBS) (10%), β‐mercaptoethanol (55 µM), sodium pyruvate (1 mM), 10 mM 4‐hydroxyethylpiperazine ethane sulfonic acid (HEPES), 1× MEM (Minimum Essential Medium) non‐essential amino acids, 20 ng/mL granulocyte‐macrophage colony‐stimulating factor (GM‐CSF), 5 ng/mL IL‐4 and 100 µg/mL Penicillin‐Streptomycin (pen‐strep) in 150 mm dish (25 mL/dish) in an incubator at standard conditions (37°C and 5% CO2). Cells were harvested using gentle washing with MEM media between days 7–9 for experiments.
[picture] Figure S16. Cytokines and chemokines production in mouse bone-marrow dendritic cells (DCs) treated with peptide nanofibers (10 μM) for 24 h.

[5] = comparison values for longer KFE peptides; ref [14], [37]; cited from earlier work
Excerpt: All the KFE5 peptide SAXS curves fit simple shape models of long polydisperse rods plus smaller globular components (Figure 5A). The characteristics of these rods, extracted from fitting to a Guinier‐plate model, are almost identical with an average rod or tape thickness estimated at 31.9(1) Å (Figure 5B). This is similar to our previously measured values for KFE8 and KFE12 [14, 37]. This thickness, which includes contributions from the solvent layer, matches the β‐sheet sandwich model. This appears to be a common feature of the KFE peptides that is not disrupted by the modification of the ...

[6] = Small-angle X-ray scattering (SAXS) of peptide assemblies; assay type: physicochemical; details: 4 mg/mL in deionized water (CN 2 mg/mL), 10°C, Debye‐Bueche fit 0.015–0.10 Å^−1
Experimental: SAXS data of the KFE5 X‐phenyl substituted peptide solutions were collected using a Rigaku (Woodlands, TX) BioSAXS‐1000 camera on an FRE^++ X‐ray generator with an ASC‐96 Automated Sample Changer held at 10°C. A matching buffer was collected for each sample. The detector was calibrated using a silver behenate powder sample, following the manufacturer's recommended procedure. The SAXS samples (KFE5 and its variants) were prepared by dissolving […] of lyophilized peptide in 400 µL of deionized water to produce a final concentration of 4 mg/mL. The samples were then vortexed, and precipitants were removed by centrifugation at […] for 5 min. Although the samples formed gels, these remained fluid under hydrostatic pressure, permitting pipetting by the ASC‐96 liquid handling system. The cyano variant of KFE5 was an exception. It remained a gel at 4 mg/mL and needed to be diluted to 2 mg/mL to be pipetted or flowed in the ASC‐96 liquid sample handling system. Processing was performed in SAXSLab (Rigaku) and SAXNS‐ES (https://xray.utmb.edu/SAXNS). Analyses were performed in Primus/GNOM [81], BIFT [82, 83], and gnuplot (http://www.gnuplot.info).

[7] = target: the molecule itself; test: negative-stain TEM; peptide solutions 10 µM, diluted in ultrapure water from fibrillated 1 mM stocks, on carbon-coated copper grids, 1% uranyl formate

| Molecule | self-assembly / fibril morphology (in words) [1] | Gel Formation [3] | viscosity (in words) [3] | fibril width [1] | binding result [7] | further results |
| --- | --- | --- | --- | --- | --- | --- |
| Ac-YKYEY-NH2 [KFE5(OH)] | complete ablation | No | lowest viscosities |  |  | ThT fluorescence intensity (in words) [2]: lowest and comparable to ThT alone; storage modulus G′, fold lower than parent peptide ([3]; 5 mM peptide, strain 1%, angular frequency 10 rad/s, n = 3): approximately 2.5 fold; cytokine and chemokine release profile (in words) [4]: release of MIP‐1α and MIP‐1β without TNF‐α secretion |
| CC(=O)N[C@@H](Cc1ccccc1)C(=O)N[C@@H](CCCCN)C(=O)N[C@@H](Cc1ccccc1)C(=O)N[C@@H](CCC(=O)O)C(=O)N[C@@H](Cc1ccccc1)C(=O)N[C@@H](CCCCN)C(=O)N[C@@H](Cc1ccccc1)C(=O)N[C@@H](CCC(=O)O)C(N)=O [KFE8, reference compound] | thin nanofibrils |  |  | 8–10 nm |  | gel inhomogeneity‐correlation length (ζ) [5]: 25 Å |
| Ac-FKFEF-NH2 [KFE5, Ac‐FKFEF‐Am] | broader tape‐like structures | No | highest viscosity among the non‐gelling derivatives | 50–100 nm |  | gel inhomogeneity‐correlation length (ζ) [6]: about 58 Å |
| B1 |  |  |  |  | binds |  |
| B2 |  |  |  |  | binds |  |
